Values of other authors, collected in patent US6532437B1, “Crystalline frap complex” (Cornell Research Foundation, Inc., priority 1996, dated 2003).

How the values were obtained:
[1] = system: spontaneous SLE in MRL/lpr-mice
[2] = system: Chronic GVHD in BDF1 mice; conditions: BDF1 mice given DBA/2 spleen:lymph node cells

Compound	effect on course of disease [1]	activity in CGVHD model [2]
Cc1oncc1C(=O)Nc1ccc(C(F)(F)F)cc1 [leflunomide]	can prevent and reverse the course of disease	active
O=P1(N(CCCl)CCCl)NCCCO1 (centres unmarked) [cyclophosphamide]	can prevent and reverse the course of disease	active
C[C@]12C=CC(=O)C=C1CC[C@@H]1[C@@H]2[C@@H](O)C[C@@]2(C)[C@H]1CC[C@]2(O)C(=O)CO [prednisolone]		active
